Data on nine compounds can be found in ChEMBL document CHEMBL4699508, “Bioactivity-Guided Discovery of Human Carboxylesterase Inhibitors from the Roots of Paeonia lactiflora” (J Nat Prod, 2020).

One may read the IC50 as the concentration at which inhibition is half-maximal. Low values mean higher potency, high ones lower potency.

The structures appear in SMILES notation.

One assay deals with T1, Liver carboxylesterase 1 (Homo sapiens, UniProt P23141).
T1 sequence (P23141 whole entry): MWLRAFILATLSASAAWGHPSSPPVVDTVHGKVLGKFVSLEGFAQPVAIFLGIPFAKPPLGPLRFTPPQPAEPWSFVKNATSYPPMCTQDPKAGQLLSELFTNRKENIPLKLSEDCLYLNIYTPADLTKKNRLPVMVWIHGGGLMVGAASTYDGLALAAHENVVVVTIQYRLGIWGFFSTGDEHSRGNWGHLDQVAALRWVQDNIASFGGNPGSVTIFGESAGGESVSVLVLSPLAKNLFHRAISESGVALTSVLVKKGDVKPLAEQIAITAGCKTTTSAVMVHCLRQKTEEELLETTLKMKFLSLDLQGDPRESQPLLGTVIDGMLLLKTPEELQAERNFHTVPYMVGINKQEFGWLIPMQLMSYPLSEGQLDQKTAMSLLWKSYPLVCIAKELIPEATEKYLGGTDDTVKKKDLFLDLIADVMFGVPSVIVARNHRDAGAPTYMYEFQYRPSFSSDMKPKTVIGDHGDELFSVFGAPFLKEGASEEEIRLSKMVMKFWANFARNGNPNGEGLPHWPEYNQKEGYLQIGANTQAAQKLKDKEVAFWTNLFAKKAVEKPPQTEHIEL
Briefly: Inhibition of CES1A1 in human liver microsomes using D-luciferin methyl ester as substrate preincubated for 10 mins followed by substrate addition and measured after 10 mins by fluorescence assay. For orientation: Liver microsomes are vesicles of endoplasmic reticulum, rich in cytochrome P450 enzymes.

The next assay is filed under the species Homo sapiens. Briefly: Selectivity ratio of IC50 for inhibition of CES2A1 in human liver microsomes to IC50 for CES1A1 in human liver microsomes. The following applies: Microsome.

`C=C1CC[C@]2(C(=O)O)CC[C@]3(C)C(=CC[C@@H]4[C@@]5(C)CC[C@@H]6OC(C)(C)OC[C@@]6(C)[C@@H]5CC[C@]43C)[C@@H]2C1` had a concentration for half-maximal inhibition (IC50) against Liver carboxylesterase 1 of 100 nM. Further, in the assay listed under Homo sapiens, the Ratio IC50 turned out to be 30.
On the same counts, the results for `C=C1CC[C@]2(C(=O)O)CC[C@]3(C)C(=CC[C@@H]4[C@@]5(C)CC[C@H](O)[C@@](C)(CO)[C@@H]5CC[C@]43C)[C@@H]2C1` are 100 nM and 30.
On the same counts, the results for `CC1(C)CC[C@]2(C(=O)O)CC[C@]3(C)C(=CC[C@@H]4[C@@]5(C)CC[C@@H]6OC(C)(C)OC[C@@]6(C)[C@@H]5CC[C@]43C)[C@@H]2C1` are 100 nM and 30.
The compound `CC1(C)CC[C@]2(C)CC[C@]3(C)C(=CC[C@@H]4[C@@]5(C)CCC(=O)C(C)(C)[C@@H]5CC[C@]43C)[C@@H]2C1` had a half-maximal inhibitory concentration (IC50) on Liver carboxylesterase 1 of 100 nM.
On Liver carboxylesterase 1, `C=C(C)[C@@H]1CC[C@]2(C(=O)O)CC[C@]3(C)[C@H](CC[C@@H]4[C@@]5(C)CC[C@@H]6OC(C)(C)OC[C@@]6(C)[C@@H]5CC[C@]43C)[C@@H]12` gave a half-inhibitory concentration (IC50) of 100 nM. Also, the Ratio IC50 in the assay listed under Homo sapiens was 30.
The corresponding values for `C[C@H]1[C@H](C)CC[C@]2(C(=O)O)CC[C@]3(C)C(=CC[C@@H]4[C@@]5(C)CC[C@H](O)C(C)(C)[C@@H]5CC[C@]43C)[C@H]12` [URSOLIC ACID] are 100 nM and 30.
The corresponding values for `CC1(C)CC[C@]2(C(=O)O)CC[C@]3(C)C(=CC[C@@H]4[C@@]5(C)CC[C@H](O)C(C)(C)[C@@H]5CC[C@]43C)[C@@H]2C1` [OLEANOLIC_ACID] are 100 nM and 30.
The compound `C=C(C)[C@@H]1CC[C@]2(C(=O)O)CC[C@]3(C)[C@H](CC[C@@H]4[C@@]5(C)CC[C@H](O)[C@@](C)(CO)[C@@H]5CC[C@]43C)[C@@H]12` returned an IC50 against Liver carboxylesterase 1 of 100 nM. In addition, the Ratio IC50 in the assay listed under Homo sapiens was determined as 30.
The corresponding values for `C=C(C)[C@@H]1CC[C@]2(C)CC[C@]3(C)[C@H](CC[C@@H]4[C@@]5(C)CC[C@H](O)C(C)(C)[C@@H]5CC[C@]43C)[C@@H]12` [LUPEOL] are 100 nM and 30.
